Experimental data taken from patent publication US20040171086A1, “Selective modulation of TLR-mediated biological activity” (3M Innovative Properties Company, priority 2003, published 2004).

Target: T1, TLR7 (Homo sapiens, UniProt Q9NYK1)
T1 sequence (Q9NYK1 27-1049): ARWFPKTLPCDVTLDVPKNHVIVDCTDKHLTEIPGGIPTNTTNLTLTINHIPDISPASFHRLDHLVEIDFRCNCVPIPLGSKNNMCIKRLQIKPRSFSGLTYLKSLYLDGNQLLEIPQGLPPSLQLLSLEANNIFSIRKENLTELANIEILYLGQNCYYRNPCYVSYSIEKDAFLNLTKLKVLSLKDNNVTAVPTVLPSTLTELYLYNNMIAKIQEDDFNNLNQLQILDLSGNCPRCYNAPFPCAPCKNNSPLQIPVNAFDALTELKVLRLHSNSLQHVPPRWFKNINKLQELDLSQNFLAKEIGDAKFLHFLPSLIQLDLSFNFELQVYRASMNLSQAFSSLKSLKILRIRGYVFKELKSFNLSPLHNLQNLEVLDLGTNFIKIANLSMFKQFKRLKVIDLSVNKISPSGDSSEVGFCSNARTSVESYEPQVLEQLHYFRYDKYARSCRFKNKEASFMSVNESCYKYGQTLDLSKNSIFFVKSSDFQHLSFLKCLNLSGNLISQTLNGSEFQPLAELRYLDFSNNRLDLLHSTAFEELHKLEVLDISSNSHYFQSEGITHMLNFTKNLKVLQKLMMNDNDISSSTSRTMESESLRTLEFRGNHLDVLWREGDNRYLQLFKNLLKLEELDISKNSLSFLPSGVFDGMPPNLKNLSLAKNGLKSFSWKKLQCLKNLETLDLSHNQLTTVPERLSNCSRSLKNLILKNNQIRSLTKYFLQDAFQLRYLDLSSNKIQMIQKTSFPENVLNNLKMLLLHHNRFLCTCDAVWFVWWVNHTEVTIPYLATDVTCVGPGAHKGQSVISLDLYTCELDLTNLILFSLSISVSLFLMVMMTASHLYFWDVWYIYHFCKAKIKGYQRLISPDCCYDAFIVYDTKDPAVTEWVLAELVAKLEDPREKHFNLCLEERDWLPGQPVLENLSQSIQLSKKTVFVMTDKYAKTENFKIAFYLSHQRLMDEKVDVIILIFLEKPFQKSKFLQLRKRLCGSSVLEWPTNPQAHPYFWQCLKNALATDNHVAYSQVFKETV
Assay: NFκB-luciferase reporter assay in HEK293 cells transfected with human TLR7 (HEK293-TLR7)
Format: cell-based
Design: expressed in transfected cells; host or cells: HEK293 (ATCC CRL-1573), pIRES vector, G-418 selected
Details: HEK293-TLR7, 10 μM IRM, 16 hours
Method: A compound was identified as increasing cellular activity mediated through a given TLR if it induced at least a two-fold increase in NFκB-induced luciferase signal compared to the control.
HEK293 medium was prepared from 90% Minimum Essential Medium (MEM) with 2 mM L-glutamine and Earle's Balanced Salt Solution (Invitrogen Corp., Rockville, Md.) adjusted to contain 1.5 g/L sodium bicarbonate, 0.1 mM non-essential amino acids, and 1.0 mM sodium pyruvate; 10% heat-inactivated fetal calf serum. HEK293 cells were cultured by incubating cells in HEK293 medium overnight at 37° C., 8% CO2.
The cells were co-transfected with (1) pIRES (BD Biosciences Clontech, Palo Alto, Calif.) either (a) unmodified (HEK293-vector), (b) containing an expressible human TLR7 gene (HEK293-TLR7), or (c) containing an expressible human TLR8 gene (HEK293-TLR8), and (2) NFκB-luc reporter (Stratagene, La Jolla, Calif.) in a 10:1 ratio with Fugene 6 transfection reagent (Roche Diagnostics Corp., Indianapolis, Ind.) following the manufacturer's instructions.
The cells were stimulated with 1 μL of IRM compounds at 1 mM in DMSO (final IRM concentration of 10 μM) or 1 μL DMSO as a control. The plates were then incubated an additional 16 hours at 37° C., 5% CO2. The luciferase signal was read using the LucLite kit (Packard Instrument Co., Meriden, Conn.). Luminescence was measured on an LMAX luminometer (Molecular Devices Corp., Sunnyvale, Calif.).

Row | TLR7: fold increase of NFκB-induced luciferase signal compared to a DMSO control [fold increase] | Compound
1 | 0.67 | CCc1nc2c(N)nc3ccccc3c2n1CCCCSc1cc(Cl)cc(Cl)c1 [IRM14, 1-{4-[(3,5-dichlorophenyl)thio]butyl}-2-ethyl-1H-imidazo[4,5-c]quinolin-4-amine]
2 | 5.54 | CCOCc1nc2c(N)nc3c(c2n1CC(C)(C)O)CCCC3 [IRM16, 4-amino-2-ethoxymethyl-α,α-dimethyl-6,7,8,9-tetrahydro-1H-imidazo[4,5-c]quinoline-1-ethanol]
3 | 2.45 | COCCc1nc2c(N)nc3ccccc3c2n1CCOCCNC(=O)Nc1ccccc1 [IRM19, N-(2-{2-[4-amino-2-(2-methoxyethyl)-1H-imidazo[4,5-c]quinolin-1-yl)ethoxy}ethyl)-N′-phenylurea]
4 | 7.08 | CCC(C)NC(=S)NCCn1c(CCOC)nc2c(N)nc3ccccc3c21 (stereo not drawn) [IRM21, N-{2-[4-amino-2-(2-methoxyethyl)-1H-imidazo[4,5-c]quinolin-1-yl]ethyl}-N′-sec-butylthiourea]
5 | 6.57 | COCCc1nc2c(N)nc3c(c2n1CC(C)(C)NS(C)(=O)=O)CCCC3 [IRM22, N-{2-[4-amino-2-(2-methoxyethyl)-6,7,8,9-tetrahydro-1H-imidazo[4,5-c]quinolin-1-yl]-1,1-dimethylethyl}methanesulfonamide]

Second part, the compound before the results:

Row | Compound | TLR7: fold increase of NFκB-induced luciferase signal compared to a DMSO control [fold increase]
6 | CCOCc1nc2c(N)nc3ccccc3c2n1CC(C)C [IRM1, 2-(ethoxymethyl)-1-(2-methylpropyl)-1H-imidazo[4,5-c]quinolin-4-amine] | 4.05
7 | COCCc1nc2c(N)nc3ccccc3c2n1CCOCCN(C)C(=O)C1CCCCC1 [IRM3, N-(2-{2-[4-amino-2-(2-methoxyethyl)-1H-imidazo[4,5-c]quinolin-1-yl]ethoxy}ethyl)-N-methylcyclohexanecarboxamide] | 6.37
8 | CCCCc1nc2c(N)nc3ccccc3c2n1CCCCCS(C)(=O)=O [IRM6, 2-butyl-1-[5-(methylsulfonyl)pentyl]-1H-imidazo[4,5-c]quinolin-4-amine] | 8.46
9 | CCc1nc2c(N)nc3ccccc3c2n1CCCCNC(=O)C1CCCCC1 [IRM8, N-[4-(4-amino-2-ethyl-1H-imidazo[4,5-c]quinolin-1-yl)butyl]cyclohexanecarboxamide] | 6.04
